From patent US6093732A, “4-hydroxyquinoline-3-carboxamides and hydrazides as antiviral agents” (Pharmacia & Upjohn Company, priority 1998, dated 2000)
pIC50: −log10 of the molar value.

How the values were obtained:
Format in all cases: biochemical
[1] = biological target: T1, HCMV polymerase (Human cytomegalovirus, UniProt P08546); test: HCMV polymerase scintillation proximity assay (SPA), modified version; conditions: CMV polymerase; Table 1; modified assay with 4.5 mM DTT, compounds in 100% DMSO; read-out: Antiviral Selective Polymerase IC50 Values, CMV
T1 construct: made in house; host or cells: recombinant baculovirus-infected SF-9 cells
Summary of the method: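 Recombinant polymerase (baculovirus/SF-9) in 5.4 mM HEPES pH 7.5, 11.7 mM KCl, 4.5 mM MgCl2, 0.36 mg/ml BSA, 90 nM 3H-dTTP, ±2 mM CHAPS; started with 6 nM biotinylated poly(dA)-oligo(dT), 25° C or 37° C, EDTA-stopped in linear range (30 min for HCMV). Streptavidin-SPA read; IC50 by linear regression. Modified version: 100% DMSO compound dilution, 4.5 mM DTT added.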

[2] = biological target: HSV polymerase (Human herpesvirus 1, UniProt P04293); test: HSV polymerase assay (procedure similar to the HCMV polymerase SPA); conditions: Table 1, read-out: Antiviral Selective Polymerase IC50 Values, HSV
Protocol: (§1) The HCMV polymerase assay is performed using a scintillation proximity assay (SPA) as described in several references, such as N. D. Cook, et al., Pharmaceutical Manufacturing International, pages 49-53 (1992); K. Takeuchi, Laboratory Practice, September issue (1992); U.S. Pat. No. 4,568,649 (1986); which are incorporated by reference herein. Reactions are performed in 96-well plates. The assay is conducted in 100 μl volume with 5.4 mM HEPES (pH 7.5), 11.7 mM KCl, 4.5 mM MgCl2, 0.36 mg/ml BSA, and 90 nM ^3 H-dTTP. Assays are run with and without CHAPS, (3-[(3-Cholamidopropyl)-dimethylammonio]-1-propane-sulfonate) at a final concentration of 2 mM. HCMV polymerase is diluted in enzyme dilution buffer containing 50% glycerol, 250 mM NaCl, 10 mM HEPES (pH 7.5), 100 μg/ml BSA, and 0.01% sodium azide. The HCMV polymerase, which is expressed in recombinant baculovirus-infected SF-9 cells and purified according to literature procedures, is added at 10% (or 10 μl) of the final reaction volume, i.e., 100 μl. Compounds are diluted in 50% DMSO and 10 μl are added to each well. Control wells contain an equivalent concentration of DMSO. Unless noted otherwise, reactions are initiated via the addition of 6 nM biotinylated poly(dA)-oligo(dT) template/primer to reaction mixtures containing the enzyme, substrate, and compounds of interest. Plates are incubated in a 25° C. or 37° C. H2 O bath and terminated via the addition of 40 μl/reaction of 0.5 M EDTA (pH 8) per well. Reactions are terminated within the time-frame during which substrate incorporation is linear and varied depending upon the enzyme and conditions used, i.e., 30 min. for HCMV polymerase. Ten μl of streptavidin-SPA beads (20 mg/ml in PBS/10% glycerol) are added following termination of the reaction. Plates are incubated 10 min. at 37° C., then equilibrated to room temperature, and counted on a Packard Topcount. Linear regressions are performed and IC50 's are calculated using computer software.
(§2) A modified version of the above HCMV polymerase assay is performed as described above, but with the following changes: Compounds are diluted in 100% DMSO until final dilution into assay buffer. In the previous assay, compounds are diluted in 50% DMSO. 4.5 mM dithiotherotol (DTT) is added to the polymerase buffer. […] Other viral polymerase assays are performed using procedures similar to those described above.

[3] = biological target: VZV polymerase (Varicella-zoster virus, UniProt P09252); test: VZV polymerase assay (procedure similar to the HCMV polymerase SPA); conditions: Table 1, read-out: Antiviral Selective Polymerase IC50 Values, VZV
Protocol: as §1, §2

VZV polymerase, sequence (P09252 whole entry): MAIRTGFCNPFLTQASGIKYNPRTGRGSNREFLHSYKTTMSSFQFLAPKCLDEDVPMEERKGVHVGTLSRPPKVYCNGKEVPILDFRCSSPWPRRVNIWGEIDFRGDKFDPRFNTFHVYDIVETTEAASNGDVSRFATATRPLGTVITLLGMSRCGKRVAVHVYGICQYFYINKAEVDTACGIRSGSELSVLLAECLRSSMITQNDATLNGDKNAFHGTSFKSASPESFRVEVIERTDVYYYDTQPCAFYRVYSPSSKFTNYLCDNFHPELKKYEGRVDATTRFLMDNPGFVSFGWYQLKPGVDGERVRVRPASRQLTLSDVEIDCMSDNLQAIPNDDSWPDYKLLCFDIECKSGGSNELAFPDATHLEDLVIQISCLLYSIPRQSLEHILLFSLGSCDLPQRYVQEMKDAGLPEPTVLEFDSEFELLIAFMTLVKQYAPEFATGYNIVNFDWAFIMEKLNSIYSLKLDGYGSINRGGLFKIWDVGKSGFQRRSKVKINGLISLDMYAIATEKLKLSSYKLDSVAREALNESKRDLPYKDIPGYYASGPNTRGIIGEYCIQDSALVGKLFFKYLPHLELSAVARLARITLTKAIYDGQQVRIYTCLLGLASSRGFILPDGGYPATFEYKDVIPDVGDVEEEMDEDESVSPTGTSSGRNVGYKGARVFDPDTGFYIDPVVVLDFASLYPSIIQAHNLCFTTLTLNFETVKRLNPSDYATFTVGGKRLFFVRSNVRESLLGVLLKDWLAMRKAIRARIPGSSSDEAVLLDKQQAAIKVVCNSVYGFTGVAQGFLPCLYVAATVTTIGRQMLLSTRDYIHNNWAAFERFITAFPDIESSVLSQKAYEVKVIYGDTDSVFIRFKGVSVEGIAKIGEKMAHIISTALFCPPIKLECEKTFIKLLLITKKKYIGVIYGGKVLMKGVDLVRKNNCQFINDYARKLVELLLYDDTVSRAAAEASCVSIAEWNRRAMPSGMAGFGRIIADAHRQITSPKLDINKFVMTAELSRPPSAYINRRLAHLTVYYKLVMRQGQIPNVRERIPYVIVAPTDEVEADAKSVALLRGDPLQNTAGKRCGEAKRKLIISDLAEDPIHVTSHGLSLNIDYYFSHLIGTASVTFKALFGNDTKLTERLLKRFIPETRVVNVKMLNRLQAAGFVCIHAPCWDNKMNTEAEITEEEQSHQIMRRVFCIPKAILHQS
HSV polymerase, sequence (P04293 whole entry): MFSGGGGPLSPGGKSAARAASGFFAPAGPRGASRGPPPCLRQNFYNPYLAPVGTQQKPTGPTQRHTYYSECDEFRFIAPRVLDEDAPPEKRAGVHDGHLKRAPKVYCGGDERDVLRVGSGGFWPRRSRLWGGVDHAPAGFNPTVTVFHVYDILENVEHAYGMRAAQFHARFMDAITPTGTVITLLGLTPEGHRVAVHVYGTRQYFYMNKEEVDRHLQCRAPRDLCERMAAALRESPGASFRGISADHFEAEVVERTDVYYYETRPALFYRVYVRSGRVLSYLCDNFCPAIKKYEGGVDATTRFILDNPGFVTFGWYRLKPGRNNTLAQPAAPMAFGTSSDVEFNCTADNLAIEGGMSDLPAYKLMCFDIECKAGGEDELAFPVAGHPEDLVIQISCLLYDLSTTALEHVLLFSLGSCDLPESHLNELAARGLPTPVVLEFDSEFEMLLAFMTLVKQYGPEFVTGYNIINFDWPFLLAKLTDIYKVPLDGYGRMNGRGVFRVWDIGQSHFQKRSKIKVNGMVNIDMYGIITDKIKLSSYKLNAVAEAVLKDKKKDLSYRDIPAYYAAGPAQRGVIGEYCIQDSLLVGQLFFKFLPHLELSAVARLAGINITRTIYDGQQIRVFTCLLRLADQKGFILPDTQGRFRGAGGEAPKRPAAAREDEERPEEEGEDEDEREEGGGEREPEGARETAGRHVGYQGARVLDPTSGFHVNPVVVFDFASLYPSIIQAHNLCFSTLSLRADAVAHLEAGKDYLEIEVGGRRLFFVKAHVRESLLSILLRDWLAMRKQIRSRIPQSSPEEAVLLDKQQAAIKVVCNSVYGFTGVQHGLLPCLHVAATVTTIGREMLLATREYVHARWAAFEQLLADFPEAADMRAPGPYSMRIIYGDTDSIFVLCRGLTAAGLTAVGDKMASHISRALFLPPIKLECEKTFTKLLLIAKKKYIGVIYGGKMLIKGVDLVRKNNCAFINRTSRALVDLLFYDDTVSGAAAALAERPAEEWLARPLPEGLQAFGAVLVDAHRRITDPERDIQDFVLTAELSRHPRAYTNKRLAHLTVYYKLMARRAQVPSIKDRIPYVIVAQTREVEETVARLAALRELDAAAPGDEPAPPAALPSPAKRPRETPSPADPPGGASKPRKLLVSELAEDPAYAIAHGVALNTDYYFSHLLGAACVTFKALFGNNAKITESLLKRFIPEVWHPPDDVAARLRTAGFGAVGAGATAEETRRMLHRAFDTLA
T1 sequence (P08546 whole entry): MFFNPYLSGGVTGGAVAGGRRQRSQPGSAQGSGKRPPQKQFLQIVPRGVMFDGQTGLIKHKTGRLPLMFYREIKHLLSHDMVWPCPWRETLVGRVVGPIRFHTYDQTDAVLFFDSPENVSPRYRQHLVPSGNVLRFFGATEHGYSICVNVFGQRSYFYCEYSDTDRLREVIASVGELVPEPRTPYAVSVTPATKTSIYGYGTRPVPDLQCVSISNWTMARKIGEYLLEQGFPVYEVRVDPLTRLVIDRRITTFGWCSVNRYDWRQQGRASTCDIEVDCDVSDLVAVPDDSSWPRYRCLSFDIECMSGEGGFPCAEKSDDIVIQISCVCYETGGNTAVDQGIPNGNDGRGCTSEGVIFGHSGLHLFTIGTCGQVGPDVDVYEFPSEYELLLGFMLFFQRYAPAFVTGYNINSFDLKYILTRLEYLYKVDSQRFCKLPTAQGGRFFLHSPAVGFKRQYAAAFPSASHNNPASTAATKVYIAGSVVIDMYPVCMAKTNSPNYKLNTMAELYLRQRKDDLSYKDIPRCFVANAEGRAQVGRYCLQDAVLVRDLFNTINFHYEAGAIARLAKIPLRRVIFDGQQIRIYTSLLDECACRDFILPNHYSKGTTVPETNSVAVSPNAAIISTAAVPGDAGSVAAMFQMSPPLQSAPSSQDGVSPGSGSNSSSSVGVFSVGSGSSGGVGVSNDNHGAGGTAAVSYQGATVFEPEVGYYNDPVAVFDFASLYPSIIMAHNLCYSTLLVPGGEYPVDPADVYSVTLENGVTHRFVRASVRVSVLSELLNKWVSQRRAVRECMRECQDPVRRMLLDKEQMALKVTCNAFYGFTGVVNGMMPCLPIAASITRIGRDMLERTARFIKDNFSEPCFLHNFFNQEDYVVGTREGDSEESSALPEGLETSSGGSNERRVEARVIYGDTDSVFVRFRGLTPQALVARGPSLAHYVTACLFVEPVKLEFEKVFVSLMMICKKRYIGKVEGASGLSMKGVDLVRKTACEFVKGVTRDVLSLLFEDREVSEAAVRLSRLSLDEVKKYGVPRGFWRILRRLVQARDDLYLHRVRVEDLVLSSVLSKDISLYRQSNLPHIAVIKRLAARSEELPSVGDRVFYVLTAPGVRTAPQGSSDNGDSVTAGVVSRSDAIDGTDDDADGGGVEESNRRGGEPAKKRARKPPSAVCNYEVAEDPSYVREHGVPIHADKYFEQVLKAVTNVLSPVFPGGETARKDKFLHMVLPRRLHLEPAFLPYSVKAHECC

| Compound | pIC50 [1] | pIC50 [2] | pIC50 [3] |
| --- | --- | --- | --- |
| O=C(NCc1ccc(Cl)cc1)c1cnc2cc(C(F)(F)F)ccc2c1O [Example 1, N-[(4-Chlorophenyl)methyl]-4-hydroxy-7-(trifluoromethyl)-3-quinoline-carboxamide] | 4.42 | 4.45 | 4.88 |
| O=C(NCc1ccc(Cl)cc1)c1cnc2c(F)c(F)c(F)c(F)c2c1O [Example 14, N-[(4-Chlorophenyl)methyl]-5,6,7,8-tetrafluoro-4-hydroxy-3-quinolinecarboxamide] | 4.94 | 5.10 | 5.44 |
| O=C(NCc1ccc(Cl)cc1)c1cnc2c(F)c(F)c(F)cc2c1O [Example 15, N-[(4-Chlorophenyl)methyl]-6,7,8-trifluoro-4-hydroxy-3-quinolinecarboxamide] | 4.68 | 4.66 | 4.88 |
| CC(=O)Nc1ccc2c(O)c(C(=O)NCc3ccc(Cl)cc3)cnc2c1 [Example 25, 7-(Acetylamino)-N-[(4-chlorophenyl)methyl]-4-hydroxy-3-quinolinecarboxamide] | 4.87 | 4.73 | 5.08 |
| CS(=O)(=O)Nc1ccc2c(O)c(C(=O)NCc3ccc(Cl)cc3)cnc2c1 [Example 26, N-[(4-Chlorophenyl)methyl]-4-hydroxy-7-[(methylsulfonyl)-amino]-3-quinolinecarboxamide] | 4.77 | 4.60 | 4.85 |
| Nc1ccc2ncc(C(=O)NCc3ccc(Cl)cc3)c(O)c2c1 [Example 28, 6-Amino-N-[(4-chlorophenyl)methyl]-4-hydroxy-3-quinoline-carboxamide] | 4.74 | 4.71 | 5.08 |
| CS(=O)(=O)Nc1ccc2ncc(C(=O)NCc3ccc(Cl)cc3)c(O)c2c1 [Example 29, N-[(4-Chlorophenyl)methyl]-4-hydroxy-6-[(methylsulfonyl)-amino]-3-quinolinecarboxamide] | 4.47 | 4.15 | 4.60 |
| CN(C)c1ccc2ncc(C(=O)NCc3ccc(Cl)cc3)c(O)c2c1 [Example 30, N-[(4-Chlorophenyl)methyl]-6-(dimethylamino)-4-hydroxy-3-quinolinecarboxamide] | 4.97 | 4.84 | 5.12 |
| CC(=O)Nc1ccc2ncc(C(=O)NCc3ccc(Cl)cc3)c(O)c2c1 [Example 31, 6-(Acetylamino)-N-[(4-chlorophenyl)methyl]-4-hydroxy-3-quinolinecarboxamide] | 4.58 | 4.09 | 4.59 |
| CC(C)(C)OP(=O)(OCCCc1cc(F)c2ncc(C(=O)NCc3ccc(Cl)cc3)c(O)c2c1)OC(C)(C)C [Example 267, Di(tert-butyl) 3-(3-{[(4-chlorobenzyl)amino]carbonyl}-8-fluoro-4-hydroxy-6-quinolinyl)propyl phosphate] | 4.28 | – | – |
| CC(C)(C)O[PH](=O)OCCCc1cc(F)c2ncc(C(=O)NCc3ccc(Cl)cc3)c(O)c2c1 (centres unmarked) [Example 271, tert-Butyl 3-(3-{[(4-chlorobenzyl)amino]carbonyl}-8-fluoro-4-hydroxy-6-quinolinyl)propyl phosphonate] | 4.69 | – | – |
| CN(CCS(=O)(=O)O)C(=O)CCCCCCC(=O)OCC#Cc1cc(F)c2ncc(C(=O)NCc3ccc(Cl)cc3)c(O)c2c1 [Example 275] | 4.55 | – | – |
| O=C(c1ccccc1)c1ccc2ncc(C(=O)NCc3ccc(Cl)cc3)c(O)c2c1 [Example 280, 6-Benzoyl-N-(4-chlorobenzyl)-4-hydroxy-3-quinolinecarboxamide] | 4.24 | – | – |

These reach a higher pIC50 [1]. Values come first.

| pIC50 [1] | pIC50 [2] | pIC50 [3] | Compound |
| --- | --- | --- | --- |
| 5.28 | 5.46 | 6.22 | Nc1ccc2c(O)c(C(=O)NCc3ccc(Cl)cc3)cnc2c1 [Example 2, 7-Amino-N-[(4-chlorophenyl)methyl]-4-hydroxy-3-quinolinecarboxamide] |
| 5.12 | 5.64 | 6.15 | O=C(NCc1ccc(Cl)cc1)c1cnc2ccccc2c1O [Example 6, N-[(4-Chlorophenyl)methyl]-4-hydroxy-3-quinolinecarboxamide] |
| 5.31 | 5.26 | 6.15 | COc1ccc2c(O)c(C(=O)NCc3ccc(Cl)cc3)cnc2c1 [Example 7, N-[(4-Chlorophenyl)methyl]-4-hydroxy-7-methoxy-3-quinoline-carboxamide] |
| > 5.64 | > 5.64 | 5.60 | O=C(NCc1ccc(Cl)cc1)c1cnc2cc(F)ccc2c1O [Example 9, N-[(4-Chlorophenyl)methyl]-7-fluoro-4-hydroxy-3-quinolinecarboxamide] |
| 5.01 | 4.85 | 5.41 | O=C(NCc1ccc(Cl)cc1)c1cnc2ccc(F)cc2c1O [Example 10, N-[(4-Chlorophenyl)methyl]-6-fluoro-4-hydroxy-3-quinoline-carboxamide] |
| 5.85 | 5.47 | > 5.51 | O=C(NCc1ccc(Cl)cc1)c1cnc2c(F)cccc2c1O [Example 12, N-[(4-Chlorophenyl)methyl]-8-fluoro-4-hydroxy-3-quinoline-carboxamide] |
| > 5.64 | 5.52 | > 5.64 | O=C(NCc1ccc(Cl)cc1)c1cnc2ccc([N+](=O)[O-])cc2c1O [Example 13, N-[(4-Chlorophenyl)methyl]-4-hydroxy-6-nitro-3-quinoline-carboxamide] |
| 5.57 | 5.55 | 5.89 | O=C(NNc1ccc(Cl)cc1)c1cnc2c(F)c(F)c(F)cc2c1O [Example 16, 6,7,8-Trifluoro-4-hydroxy-3-quinolinecarboxylic acid 2-(4-chlorophenyl)hydrazide] |
| 5.02 | – | – | O=C(NCc1ccc(Cl)cc1)c1cnc2c(F)cc(CCCOP(=O)(O)O)cc2c1O [Example 268, 3-(3-{[(4-Chlorobenzyl)amino]carbonyl}-8-fluoro-4-hydroxy-6-quinolinyl)propyl dihydrogen phosphate] |
| 5.01 | – | – | O=C(NCc1ccc(Cl)cc1)c1cnc2ccc(CCCOP(=O)(O)O)cc2c1O [Example 269, 3-(3-{[(4-Chlorobenzyl)amino]carbonyl-4-hydroxy-6-quinolinyl)propyldihydrogen phosphate] |
| 5.55 | – | – | CC(C)(C)O[PH](=O)OCCCc1ccc2ncc(C(=O)NCc3ccc(Cl)cc3)c(O)c2c1 (centres unmarked) [Example 270, tert-Butyl 3-(3-{[(4-chlorobenzyl)amino]carbonyl}-4-hydroxy-6-quinolinyl)propyl phosphonate] |
| 5.07 | – | – | O=C(NCc1ccc(Cl)cc1)c1cnc2ccc(CCCO[PH](=O)O)cc2c1O [Example 272, 3-(3-{[(4-Chlorobenzyl)amino]carbonyl}-4-hydroxy-6-quinolinyl)propyl hydrogen phosphonate] |
| 6.11 | – | – | O=C(NCc1ccc(Cl)cc1)c1cnc2cc(S(=O)(=O)NCc3cccc4ccccc34)ccc2c1O [Example 277, N-(4-Chlorobenzyl)-4-hydroxy-7-{[(1-naphthylmethyl)amino]-sulfonyl}-3-quinolinecarboxamide] |
| 5.68 | – | – | CSc1ccc2c(O)c(C(=O)NCc3ccc(Cl)cc3)cnc2c1 [Example 278, N-(4-Chlorobenzyl)-4-hydroxy-7-(methylsulfanyl)-3-quinolinecarboxamide] |
| 5.31 | – | – | O=C(NCc1ccc(Cl)cc1)c1cnc2cc3c(cc2c1O)OCO3 [Example 279, N-(4-Chlorobenzyl)-8-hydroxy[1,3]dioxolo [4,5-g]quinoline-7-carboxamide] |
